Laboratory results from US7915276B2, “Berberrubine derivatives having antifungal activities” (priority 2006, dated 2011).

Key:
[1] = target: T1, chitin synthase 1 of Candida albicans chs2 Δ chs 3 Δ (Candida albicans, UniProt P23316); assay: In vitro enzyme assay for chitin synthase 1 of Candida albicans (enzyme 1); type: biochemical; details: relative to polyoxin D (50% inhibitory activity = value 5)
T1 construct: Crude enzyme was prepared using the Candida albicans chs2 Δ chs 3 Δ mutant; endogenous in cells; host or cells: Candida albicans chs2Δ/chs2Δ chs3Δ/chs3Δ mutant; 130,000 x g membrane pellet
Procedure, shortened: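 Crude membrane enzyme from the C. albicans chs2Δ chs3Δ strain was trypsin-activated for 15 min at 30 °C. Reaction: 32 mM Tris-HCl pH 7.5, 2 mM cobalt acetate, 1.1 mM UDP-[14C]GlcNAc, 90 min at 30 °C; TCA-insoluble radioactivity counted. Scored 1–8 by relative polyoxin D concentration (5 = equal).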

[2] = target: T2, chitin synthase 2 of Saccharomyces cerevisiae ECY38-38A(pAS6) (Saccharomyces cerevisiae, UniProt P14180); assay: In vitro enzyme assay for chitin synthase 2 of Saccharomyces cerevisiae (enzyme 2); type: biochemical; details: relative to polyoxin D (50% inhibitory activity = value 5)
T2 construct: made in house; host or cells: Saccharomyces cerevisiae ECY38-38A (chs1-23 chs2::LEU2 cal1/csd2) carrying plasmid pAS6, grown in galactose medium; 130,000 x g membrane pellet
Procedure, shortened: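 Crude membrane chitin synthase 2 came from S. cerevisiae ECY38-38A(pAS6), expressing only CHS2, and was trypsin-activated (15 min, 30 °C) then trypsin-inhibited. The reaction ran in 32 mM Tris-HCl pH 7.5, 2 mM cobalt acetate, 1.1 mM UDP-[14C]-GlcNAc, 90 min at 30 °C. TCA-precipitated product was counted by scintillation; scores 1–8 reflect concentration relative to polyoxin D's 50% inhibition (score 5).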

[3] = tested on: Aspergillus flavus ATCC 64025; assay: In vitro antifungal activity (MIC), NCCLS method; type: cell-based; details: for MIC (minimum inhibitory concentration): 48 hours
Text: (§1) Candida albicans ATCC 10231, Candida lusitaniae ATCC 42720, Candida krusei ATCC 6258, Candida tropicalis ATCC 13803, Candida glabrata ATCC 48435, Candida parapsilosis ATCC 34136, Cryptococcus neoformans ATCC 36556, Aspergillus fumigatus ATCC 16424, Aspergillus flavus ATCC 64025, Aspergillus terreus ATCC 46941 and Mucor ramosissimus ATCC 90286 strains for the MIC (minimum inhibitory concentration) measurement were obtained from ATCC (American Type Culture Collection) in the U.S. The Candida albicans A207(clinical isolate) strain was used by isolating it from the patients.
(§2) The determination of MIC was performed according to the NCCLS (National Committee for Clinical Laboratory Standard) method. Each test sample solution was diluted two-fold and inoculated with a fungal suspension to reach a final inoculum size of 5×10^2 to 2.5×10^3 cell/mL. The Cryptococcus neoformans strain was cultured in the RPMI 1640 medium for 72 hours. Other strains were cultured for 48 hours.

[4] = tested on: Aspergillus fumigatus ATCC 16424; assay: In vitro antifungal activity (MIC), NCCLS method; type: cell-based; details: for MIC (minimum inhibitory concentration): 48 hours
Text: as §1, §2

[5] = tested on: Aspergillus terreus ATCC 46941; assay: In vitro antifungal activity (MIC), NCCLS method; type: cell-based; details: for MIC (minimum inhibitory concentration): 48 hours
Text: as §1, §2

[6] = tested on: Candida albicans A207 (clinical isolate); assay: In vitro antifungal activity (MIC), NCCLS method; type: cell-based; details: 48 hours
Text: as §1, §2

[7] = tested on: Candida albicans ATCC 10231; assay: In vitro antifungal activity (MIC), NCCLS method; type: cell-based; details: for MIC (minimum inhibitory concentration): 48 hours
Text: as §1, §2

[8] = tested on: Candida glabrata ATCC 48435; assay: In vitro antifungal activity (MIC), NCCLS method; type: cell-based
Text: as §1, §2

Candida krusei ATCC 6258 = assay: In vitro antifungal activity (MIC), NCCLS method; type: cell-based; details: for MIC (minimum inhibitory concentration): 48 hours
Text: as §1, §2

[9] = tested on: Candida lusitaniae ATCC 42720; assay: In vitro antifungal activity (MIC), NCCLS method; type: cell-based; details: for MIC (minimum inhibitory concentration): 48 hours
Text: as §1, §2

[10] = tested on: Candida parapsilosis ATCC 34136; assay: In vitro antifungal activity (MIC), NCCLS method; type: cell-based
Text: as §1, §2

[11] = tested on: Candida tropicalis ATCC 13803; assay: In vitro antifungal activity (MIC), NCCLS method; type: cell-based; details: for MIC (minimum inhibitory concentration): 48 hours
Text: as §1, §2

[12] = tested on: Cryptococcus neoformans ATCC 36556; assay: In vitro antifungal activity (MIC), NCCLS method; type: cell-based; details: 72 hours; for MIC (minimum inhibitory concentration): RPMI 1640 medium
Text: as §1, §2

[13] = tested on: Mucor ramosissimus ATCC 90286; assay: In vitro antifungal activity (MIC), NCCLS method; type: cell-based; details: for MIC (minimum inhibitory concentration): 48 hours
Text: as §1, §2

[14] = Candida glabrata ATCC 48435, 48 hours
[15] = Candida parapsilosis ATCC 34136, 48 hours

T1 sequence (P23316 whole entry, stated change not applied): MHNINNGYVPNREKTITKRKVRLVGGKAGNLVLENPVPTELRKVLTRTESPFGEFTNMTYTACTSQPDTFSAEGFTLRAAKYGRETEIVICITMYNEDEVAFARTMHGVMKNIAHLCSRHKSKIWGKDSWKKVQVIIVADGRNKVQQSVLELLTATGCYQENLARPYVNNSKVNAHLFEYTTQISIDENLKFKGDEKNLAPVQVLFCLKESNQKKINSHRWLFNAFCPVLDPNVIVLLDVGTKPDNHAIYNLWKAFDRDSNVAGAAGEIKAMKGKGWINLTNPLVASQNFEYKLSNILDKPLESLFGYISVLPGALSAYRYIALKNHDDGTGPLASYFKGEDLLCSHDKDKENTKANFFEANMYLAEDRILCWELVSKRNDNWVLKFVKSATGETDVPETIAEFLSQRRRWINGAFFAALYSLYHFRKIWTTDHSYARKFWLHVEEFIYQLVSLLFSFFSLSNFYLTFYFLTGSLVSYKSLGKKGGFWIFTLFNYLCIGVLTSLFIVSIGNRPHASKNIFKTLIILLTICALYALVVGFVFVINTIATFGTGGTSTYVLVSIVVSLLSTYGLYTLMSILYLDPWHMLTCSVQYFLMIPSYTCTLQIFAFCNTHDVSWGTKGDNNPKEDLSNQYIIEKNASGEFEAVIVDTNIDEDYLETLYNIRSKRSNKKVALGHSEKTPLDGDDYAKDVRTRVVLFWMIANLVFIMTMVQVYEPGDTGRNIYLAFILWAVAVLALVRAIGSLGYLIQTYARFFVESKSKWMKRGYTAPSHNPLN
T2 sequence (P14180 whole entry): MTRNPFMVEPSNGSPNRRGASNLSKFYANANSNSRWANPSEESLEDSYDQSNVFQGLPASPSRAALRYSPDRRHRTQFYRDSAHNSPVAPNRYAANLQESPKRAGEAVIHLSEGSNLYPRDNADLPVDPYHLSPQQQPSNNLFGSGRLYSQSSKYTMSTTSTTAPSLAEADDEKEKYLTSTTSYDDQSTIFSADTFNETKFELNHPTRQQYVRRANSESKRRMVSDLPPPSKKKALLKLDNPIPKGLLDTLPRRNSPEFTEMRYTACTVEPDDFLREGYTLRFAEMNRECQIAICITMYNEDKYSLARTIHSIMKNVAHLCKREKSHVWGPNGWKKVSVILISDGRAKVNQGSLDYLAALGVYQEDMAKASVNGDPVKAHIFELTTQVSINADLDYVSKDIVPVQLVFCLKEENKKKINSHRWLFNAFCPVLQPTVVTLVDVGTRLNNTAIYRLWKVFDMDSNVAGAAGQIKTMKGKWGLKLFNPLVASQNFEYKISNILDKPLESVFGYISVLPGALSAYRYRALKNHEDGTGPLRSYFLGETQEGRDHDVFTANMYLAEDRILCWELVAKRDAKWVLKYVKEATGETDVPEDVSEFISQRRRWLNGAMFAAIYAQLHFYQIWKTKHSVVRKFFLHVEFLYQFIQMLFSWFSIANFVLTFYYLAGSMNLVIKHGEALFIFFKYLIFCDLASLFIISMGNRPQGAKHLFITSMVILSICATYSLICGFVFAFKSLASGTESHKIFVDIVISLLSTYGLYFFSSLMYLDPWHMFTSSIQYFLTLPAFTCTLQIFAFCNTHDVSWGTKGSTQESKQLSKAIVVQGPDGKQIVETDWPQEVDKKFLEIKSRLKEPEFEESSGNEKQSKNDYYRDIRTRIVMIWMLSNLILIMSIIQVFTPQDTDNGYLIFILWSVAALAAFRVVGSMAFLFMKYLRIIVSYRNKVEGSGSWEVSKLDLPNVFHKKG

Compound	Relative activity Enzyme 1 [1]	Relative activity Enzyme 2 [2]	MIC (minimum inhibitory concentration) [3] [µg/mL]	MIC (minimum inhibitory concentration) [4] [µg/mL]	MIC (minimum inhibitory concentration) [5] [µg/mL]	MIC (minimum inhibitory concentration) [6] [µg/mL]	MIC (minimum inhibitory concentration) [7] [µg/mL]	MIC (minimum inhibitory concentration) [8, 14] [µg/mL]	MIC (minimum inhibitory concentration) (Candida krusei ATCC 6258) [µg/mL]	MIC (minimum inhibitory concentration) [9] [µg/mL]	MIC (minimum inhibitory concentration) [10, 15] [µg/mL]	MIC (minimum inhibitory concentration) [11] [µg/mL]	MIC (minimum inhibitory concentration) [12] [µg/mL]	MIC (minimum inhibitory concentration) [13] [µg/mL]	also measured
13-(4-Isopropylbenzyl)-9-O-octylberberrubine iodide [Compound No. 20]	3 (Compounds having the inhibitory activity at 2-fold, 4-fold, 8-fold and 16-fold higher concentrations than that of polyoxin D were given the values of 4, 3, 2 and 1, respectively)	5 (A compound having the same inhibitory activity as that of polyoxin D at the same concentration was given the value 5)	4	2	4	0.25	0.25	2	1	0.5	2	0.125	1	2	
13-(4-tert-Butylbenzyl)-9-O-(4-isopropylbenzyl)berberrubine chloride [Compound No. 48]	2 (Compounds having the inhibitory activity at 2-fold, 4-fold, 8-fold and 16-fold higher concentrations than that of polyoxin D were given the values of 4, 3, 2 and 1, respectively)	5 (A compound having the same inhibitory activity as that of polyoxin D at the same concentration was given the value 5)	8	4	8	1	1	2	2	4	8	1	2	8	
13-(4-Isopropylbenzyl)-9-O-allylberberrubine iodide [Compound No. 23]	2 (Compounds having the inhibitory activity at 2-fold, 4-fold, 8-fold and 16-fold higher concentrations than that of polyoxin D were given the values of 4, 3, 2 and 1, respectively)	5 (A compound having the same inhibitory activity as that of polyoxin D at the same concentration was given the value 5)	8	8	8	1	1	8	2	2	4	1	2	4	
13-(4-tert-Butylbenzyl)-9-O-crotylberberrubine bromide [Compound No. 14]	2 (Compounds having the inhibitory activity at 2-fold, 4-fold, 8-fold and 16-fold higher concentrations than that of polyoxin D were given the values of 4, 3, 2 and 1, respectively)	5 (A compound having the same inhibitory activity as that of polyoxin D at the same concentration was given the value 5)	8	2	4	0.5	0.5	4	1	1	4	0.5	1	4	
13-(4-tert-Butylbenzyl)-9-O-octylberberrubine iodide [Compound No. 10]	3 (Compounds having the inhibitory activity at 2-fold, 4-fold, 8-fold and 16-fold higher concentrations than that of polyoxin D were given the values of 4, 3, 2 and 1, respectively)	5 (A compound having the same inhibitory activity as that of polyoxin D at the same concentration was given the value 5)	4	2	4	0.25	0.25	2	1	0.5	2	0.125	1	2	
COc1ccc2c(Cc3ccc(C(C)(C)C)cc3)c3[n+](cc2c1OC)CCc1cc2c(cc1-3)OCO2.[Cl-] [Comparative compound 1, reference compound]	1 (Compounds having the inhibitory activity at 2-fold, 4-fold, 8-fold and 16-fold higher concentrations than that of polyoxin D were given the values of 4, 3, 2 and 1, respectively)	3 (Compounds having the inhibitory activity at 2-fold, 4-fold, 8-fold and 16-fold higher concentrations than that of polyoxin D were given the values of 4, 3, 2 and 1, respectively)													MIC ([3]; ATCC64025, 48 hours, read-out: MIC (minimum inhibitory concentration)): > 128 µg/mL; MIC ([4]; ATCC16424, 48 hours, read-out: MIC (minimum inhibitory concentration)): 128 µg/mL; MIC ([5]; ATCC46941, 48 hours, read-out: MIC (minimum inhibitory concentration)): > 128 µg/mL; MIC ([6]; read-out: MIC (minimum inhibitory concentration)): 8 µg/mL; MIC ([7]; ATCC10231, 48 hours, read-out: MIC (minimum inhibitory concentration)): 4 µg/mL; antifungal activities (in words) ([8]; Candida glabrata): no antifungal activities; MIC ([8]; Nakaseomyces glabratus, ATCC48435, Candida glabrata ATCC 48435, 48 hours, read-out: MIC (minimum inhibitory concentration)): > 128 µg/mL; MIC (Candida krusei ATCC 6258; Pichia kudriavzevii, ATCC6258, 48 hours, read-out: MIC (minimum inhibitory concentration)): 16 µg/mL; MIC ([9]; Clavispora lusitaniae, ATCC42720, 48 hours, read-out: MIC (minimum inhibitory concentration)): 8 µg/mL; antifungal activities (in words) ([10]; Candida parapsilosis): no antifungal activities; MIC ([10]; Lodderomyces parapsilosis, ATCC34136, Candida parapsilosis ATCC 34136, 48 hours, read-out: MIC (minimum inhibitory concentration)): > 128 µg/mL; MIC ([11]; ATCC13803, 48 hours, read-out: MIC (minimum inhibitory concentration)): 2 µg/mL; MIC ([12]; ATCC36556, RPMI 1640 medium, read-out: MIC (minimum inhibitory concentration)): 8 µg/mL; MIC ([13]; ATCC90286, 48 hours, read-out: MIC (minimum inhibitory concentration)): 128 µg/mL
13-(4-tert-Butylbenzyl)-9-O-(4-tert-butylbenzyl)berberrubine bromide [Compound No. 15]	3 (Compounds having the inhibitory activity at 2-fold, 4-fold, 8-fold and 16-fold higher concentrations than that of polyoxin D were given the values of 4, 3, 2 and 1, respectively)	5 (A compound having the same inhibitory activity as that of polyoxin D at the same concentration was given the value 5)	8	4	8	1	1	4	4	4	8	1	2	8	
